Structures can show the parent of a compound that is named as a salt. Where two headings read alike, the source gives them in different places.
Test system: NB12 tumor-initiating cells
Test: IC50 determination, Alamar Blue cell survival/growth assay
Format: cell-based, human
Protocol: FIG. 4A-4E, according to one embodiment of the invention, presents the IC50 values that were determined for the 64 selected candidate compounds. […] Tumor-initiating cells and normal cells were treated with 10 serial dilutions of compounds (5 μM to 9 nM). […] (FS90=normal cells; NB12=tumor-initiating cells).
FIG. 6A-6FF, according to one embodiment of the invention, presents IC50 values for 32 selected compounds from the LOPAC and Prestwick collections. Tumor-initiating cells (NB12) and normal cells (FS90) were treated with 10 serial dilutions of compounds ranging from 5 μM to 9 nM. Cell survival/growth was assayed using Alamar Blue and the percentage of control Alamar Blue signal was plotted versus log[compound] nM. IC50 values for NB12 are given above each plot.
FIG. 7A-7FF, according to one embodiment of the invention, represents IC50 values determined for 32 selected compounds from the LOPAC, Prestwick, and Spectrum collections. Tumor-initiating cells (NB12) and normal cells (FS90) were treated with 10 serial dilutions of compounds ranging from 5 μM to 9 nM. Cell survival/growth was assayed using Alamar Blue and the percentage of control Alamar Blue signal was plotted versus log[compound] nM (FS90 in dashed line, NB12 in bolded line). IC50 values for NB12 and FS90 are given beside each plot.
To identify compounds that suppress the growth and survival of neuroblastoma (NB) tumor-initiating cells and not nontransformed normal cells (SKPs), a cell-based assay was established and used in which NB tumor-initiating cells from a multiple relapse NB patient (NB12, passage 6-17) and normal SKPs (FS90, passage 2-5) were tested in parallel to detect specific alterations of cell viability/proliferation. For each cell type, cells were passaged 5 days prior to screening. Three thousand (3000) cells in 100 µL SKPs growth media (B27, bFGF, EGF, P/S, fungizone in DMEM:F12 with 50% hFS conditioned media) were robotically plated in uncoated 96 well plates and treated with test compound for 30 hours, prior to a 24 hour incubation in the presence of Alamar Blue and subsequent fluorometric reading.
Thirty-two (32) compounds were selected for IC50 determinations using FS90, FS105, and NB12. IC50 for the remaining compounds of interest will be tested at a later date (in combination with hits from additional libraries).

[1] = Homo sapiens, NB12, 10 serial dilutions 5 μM to 9 nM, Alamar Blue, read-out: NB12 IC50
[2] = NB12, 10 serial dilutions 5 μM to 9 nM, Alamar Blue, read-out: NB12 IC50
[3] = Homo sapiens, read-out: NB12 IC50 (nM)

Molecule: CC[N+](CC)(CC)CCOc1ccc(/C=C/c2ccccc2)cc1 [MG 624]
- IC50 [1]: 848 nM

Molecule: CC(C)CCC[C@@H](C)[C@H]1CC[C@H]2[C@@H]3C[C@@H](O)[C@@]4(O)C[C@@H](O)CC[C@]4(C)[C@H]3CC[C@]12C [CHOLESTAN-3beta.5alpha.6beta-TRIOL]
- IC50 [2]: 2410 nM

Molecule: COc1cc([C@@H]2c3cc4c(cc3[C@@H](O[C@@H]3O[C@@H]5CO[C@@H](C)O[C@H]5[C@H](O)[C@H]3O)[C@H]3COC(=O)[C@H]23)OCO4)cc(OC)c1O [Etoposide]
- IC50 [1]: 694 nM

Molecule: CS(=O)(=O)CCCCN=C=S [ERYSOLIN]
- IC50 [1]: 3280 nM

Molecule: C[C@@H]1O[C@@H](O[C@H]2C[C@@H](O)[C@]3(CO)[C@H]4[C@H](O)C[C@]5(C)[C@@H]([C@@H]6COC(=O)C6)CC[C@]5(O)[C@@H]4CC[C@]3(O)C2)[C@H](O)[C@H](O)[C@H]1O [Dihydroouabain]
- IC50 [2]: 1540 nM

Molecule: COc1cc([C@@H]2c3cc4c(c(O)c3C[C@H]3COC(=O)[C@@H]32)OCO4)cc(OC)c1OC [beta-PELTATIN]
- IC50 [2]: 1950 nM

Molecule: CC(C)/N=c1\cc2n(-c3ccc(Cl)cc3)c3ccccc3nc-2cc1Nc1ccc(Cl)cc1 [Clofazimine]
- IC50 [1]: 1420 nM

Molecule: COc1cc(NS(C)(=O)=O)ccc1Nc1c2ccccc2nc2ccccc12 [AMSACRINE HYDROCHLORIDE]
- IC50 [1]: 1210 nM

Molecule: COc1cc([C@@H]2c3cc4c(cc3[C@H](O)[C@H]3COC(=O)[C@H]23)OCO4)cc(OC)c1OC [Podophyllotoxin]
- IC50 [1]: 135 nM

Molecule: CO[C@H]1C[C@H](O[C@H]2CC[C@]3(C)[C@H]4CC[C@]5(C)[C@@H](C6=CC(=O)OC6)CC[C@]5(O)[C@@H]4CC[C@]3(O)C2)O[C@H](C)[C@H]1O [PERIPLOCYMARIN]
- IC50 [1]: 2700 nM

Molecule: N=c1ccn2c(n1)O[C@H]1[C@H](O)[C@@H](CO)O[C@H]12 [Ancitabine hydrochloride]
- IC50 [1]: 520 nM

Molecule: Nc1nc(O)c2[nH]nnc2n1 [Azaguanine-8]
- IC50 [2]: 331 nM

Molecule: C[C@@H]1O[C@@H](O[C@H]2CC[C@]3(C=O)[C@H]4CC[C@]5(C)[C@@H](C6=CC(=O)OC6)CC[C@]5(O)[C@@H]4CC[C@]3(O)C2)[C@H](O)[C@H](O)[C@H]1O [CONVALLATOXIN]
- IC50 [1]: 73.2 nM

Molecule: CC[C@]1(O)C[C@H]2CN(CCc3c([nH]c4ccccc34)[C@@](C(=O)OC)(c3cc4c(cc3OC)N(C=O)[C@H]3[C@@](O)(C(=O)OC)[C@H](OC(C)=O)[C@]5(CC)C=CCN6CC[C@]43[C@@H]65)C2)C1 [Vincristine sulfate]
- IC50 [1]: 62 nM

Molecule: CCN(CC)CCCC(C)Nc1c2ccc(Cl)cc2nc2ccc(OC)cc12 (centres unmarked) [Quinacrine dihydrochloride]
- IC50 [1]: 2560 nM

Molecule: CC(C)=CCC[C@]1(C)C=Cc2c(O)c3c(c(CC=C(C)C)c2O1)O[C@]12C(=C[C@@H]4C[C@H]1C(C)(C)O[C@@]2(C/C=C(/C)C(=O)O)C4=O)C3=O [GAMBOGIC ACID]
- IC50 [1]: 1700 nM

Molecule: C[n+]1cc2c3c(ccc2c2ccc4cc5c(cc4c21)OCO5)OCO3 [Sanguinarine chloride]
- IC50 [3]: 1800 nM

Molecule: CC(=O)[C@]1(O)Cc2c(O)c3c(c(O)c2[C@@H](O[C@H]2C[C@H](N)[C@H](O)[C@H](C)O2)C1)C(=O)c1ccccc1C3=O [Idarubicin]
- IC50 [1]: 204 nM

Molecule: CC[C@@]1(O)C[C@H](O[C@H]2C[C@H](N(C)C)[C@H](O)[C@H](C)O2)c2c(cc3c(c2O)C(=O)c2c(O)cccc2C3=O)[C@H]1C(=O)OC [AKLAVINE HYDROCHLORIDE]
- IC50 [1]: 778 nM

Molecule: Cc1cccc(CN2CCN(C(c3ccccc3)c3ccc(Cl)cc3)CC2)c1 (centres unmarked) [MECLIZINE HYDROCHLORIDE]
- IC50 [1]: 2540 nM

Molecule: O=C1c2c(O)ccc(O)c2C(=O)c2c(NCCNCCO)ccc(NCCNCCO)c21 [MITOXANTHRONE HYDROCHLORIDE]
- IC50 [1]: 60.5 nM

Molecule: COc1ccc2c(c[n+](C)c3c4cc5c(cc4ccc23)OCO5)c1OC [Chelerythrine chloride]
- IC50 [1]: 2550 nM

Molecule: CO[C@H]1C=C[C@@]23c4cc5c(cc4CN(C[C@@H]2O)[C@H]3C1)OCO5 [CRINAMINE]
- IC50 [2]: 1740 nM

Molecule: C=C1C(=O)O[C@H]2C[C@@H]1C(OC(C)=O)C/C(C)=C/CC/C(C)=C/CC[C@@]2(C)O (some centres unmarked) [CRASSIN ACETATE]
- IC50 [1]: 1950 nM

Molecule: Cc1cc(C2CCCCC2)n(O)c(=O)c1 [CICLOPIROX OLAMINE]
- IC50 [1]: 2050 nM

Molecule: C[C@H]1O[C@@H](O[C@H]2[C@@H](O)C[C@H](O[C@H]3[C@@H](O)C[C@H](O[C@H]4CC[C@@]5(C)[C@H](CC[C@@H]6[C@@H]5C[C@@H](O)[C@]5(C)[C@@H](C7=CC(=O)OC7)CC[C@]65O)C4)O[C@@H]3C)O[C@@H]2C)C[C@H](O)[C@@H]1O [Digoxin]
- IC50 [3]: 542 nM

Molecule: CCN(CC)Cc1cc(Nc2ccnc3cc(Cl)ccc23)ccc1O [Amodiaquin dihydrochloride dihydrate]
- IC50 [1]: 790 nM

Molecule: CO[C@H]1[C@H](O)[C@H](O[C@H]2CC[C@@]3(C=O)[C@H](CC[C@@H]4[C@@H]3CC[C@]3(C)[C@@H](C5=CC(=O)OC5)CC[C@]43O)C2)O[C@@H](C)[C@@H]1O [PERUVOSIDE]
- IC50 [1]: 222 nM

Molecule: C[C@@H]1O[C@@H](O[C@H]2C[C@@H](O)[C@]3(CO)[C@H]4[C@H](O)C[C@]5(C)[C@@H](C6=CC(=O)OC6)CC[C@]5(O)[C@@H]4CC[C@]3(O)C2)[C@H](O)[C@H](O)[C@H]1O [Ouabain]
- IC50 [1]: 123 nM

Molecule: Cc1cc(N)c2ccccc2[n+]1CCCCCCCCCC[n+]1c(C)cc(N)c2ccccc21 [Dequalinium dichloride]
- IC50 [1]: 3620 nM

Molecule: CC(C)=CCCC1(C)C=Cc2c(O)c3c(c(CC=C(C)C)c2O1)OC12C(=CC4CC1C(C)(C)OC2(C/C=C(/C)C(=O)O)C4O)C3=O (centres unmarked) [DIHYD[…]]
- IC50 [1]: 1690 nM

Molecule: COc1cc([C@@H]2c3cc4c(cc3[C@@H](O[C@@H]3O[C@@H]5CO[C@@H](c6cccs6)O[C@H]5[C@H](O)[C@H]3O)[C@H]3COC(=O)[C@H]23)OCO4)cc(OC)c1O [TENIPOSIDE]
- IC50 [1]: 706 nM

Molecule: CC[C@@]1(O)C(=O)OCc2c1cc1n(c2=O)Cc2cc3ccccc3nc2-1 [Camptothecine (S.+)]
- IC50 [2]: 183 nM

Molecule: Vinblastine sulfate salt
- IC50 [2]: 113 nM

Molecule: Dequalinium analog. C-14 linker
- IC50 [2]: 1110 nM

From US20090036387A1, “NOVEL CHEMICAL ENTITIES AFFECTING NEUROBLASTOMA TUMOR-INITIATING CELLS” (The Hospital for Sick Children, priority 2005, published 2009)
